Measured values: ChEMBL document CHEMBL1201862, “PubChem BioAssay data set” (2004)
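Growth conditions: 96-well plates. Treatment: test compound, 48 hours, 5 concentrations. Analysis: linear interpolation between bracketing concentrations; unreached endpoints set to highest concentration. Abbreviation: GI50, concentration required for 50% inhibition of growth.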 Activity calls are given as the source filed them. Rule as the data show it: active = GI50 up to about 1.1 µM and inactive = higher.

What was measured:
Assay in all cases: DTP human tumour cell line panel, 48 h
KM-20L2 = system: KM-20L2
HL-60 = system: HL-60
M14 = system: M14
DU-145 = system: DU-145
UACC-62 = system: UACC-62
UO-31 = system: UO-31
MDA-MB-231 = system: MDA-MB-231
MCF7 = system: MCF7
TK-10 = system: TK-10
HCC 2998 = system: HCC 2998
DMS-114 = system: DMS-114
OVCAR-3 = system: OVCAR-3
M19-MEL = system: M19-MEL
786-0 = system: 786-0
EKVX = system: EKVX
DLD-1 = system: DLD-1
NCI-H522 = system: NCI-H522
MDA-MB-435 = system: MDA-MB-435
A498 = system: A498
LXFL 529 = system: LXFL 529

Row | Structure (SMILES) | GI50 (KM-20L2) | GI50 (HL-60) | GI50 (M14) | GI50 (DU-145) | GI50 (UACC-62) | GI50 (UO-31) | GI50 (MDA-MB-231) | GI50 (MCF7) | GI50 (TK-10) | GI50 (HCC 2998) | GI50 (DMS-114) | GI50 (OVCAR-3) | GI50 (M19-MEL) | GI50 (786-0) | GI50 (EKVX) | GI50 (DLD-1) | GI50 (NCI-H522) | GI50 (MDA-MB-435) | GI50 (A498) | GI50 (LXFL 529)
1 | Nc1nncs1 | 301 µM (inactive) | 2080 µM (inactive) | 1580 µM (inactive) | 2070 µM (inactive) | 1910 µM (inactive) | 3530 µM (inactive) | 2320 µM (inactive) | 2480 µM (inactive) | > 5000 µM (inactive) | 2160 µM (inactive) | 1960 µM (inactive) | 2400 µM (inactive) | 1090 µM (inactive) | 4080 µM (inactive) | 1320 µM (inactive) | 641 µM (inactive) | 1210 µM (inactive) | 1630 µM (inactive) | 867 µM (inactive) | 
2 | CC1C(=O)C(C)C(c2ccco2)N(N=O)C1c1ccco1 (stereo unspecified) | > 100 µM (inactive) | > 100 µM (inactive) |  |  | > 100 µM (inactive) | > 100 µM (inactive) |  | > 100 µM (inactive) |  | > 100 µM (inactive) |  | > 100 µM (inactive) | > 100 µM (inactive) |  | > 100 µM (inactive) | > 100 µM (inactive) | > 100 µM (inactive) |  | > 100 µM (inactive) | 
3 | COc1ccc(C(N)=O)cc1/N=N/N(C)C | > 100 µM (inactive) | > 100 µM (inactive) | > 100 µM (inactive) |  | > 100 µM (inactive) | > 100 µM (inactive) |  |  | > 100 µM (inactive) | > 100 µM (inactive) |  | > 100 µM (inactive) | > 100 µM (inactive) | > 100 µM (inactive) | > 100 µM (inactive) | > 100 µM (inactive) | > 100 µM (inactive) |  | > 100 µM (inactive) | > 100 µM (inactive)
4 | O=C(CCn1[nH]c(=O)c(Cl)c(Cl)c1=O)NOCCCc1ccccc1 | > 100 µM (inactive) | > 100 µM (inactive) | > 100 µM (inactive) |  | > 100 µM (inactive) | > 100 µM (inactive) |  |  | > 100 µM (inactive) | > 100 µM (inactive) |  | > 100 µM (inactive) | > 100 µM (inactive) | > 100 µM (inactive) | > 100 µM (inactive) | > 100 µM (inactive) |  |  | > 100 µM (inactive) | > 100 µM (inactive)
5 | O=C1C=CC(CC(=O)c2ccc3ccccc3c2)O1 (stereo unspecified) | 20.5 µM (inactive) | 17.1 µM (inactive) | 32.2 µM (inactive) |  | 18.8 µM (inactive) | 24.3 µM (inactive) |  |  | 32.8 µM (inactive) | 17.2 µM (inactive) |  | 25.2 µM (inactive) | 43.5 µM (inactive) | 21.6 µM (inactive) | > 100 µM (inactive) | 28.7 µM (inactive) |  |  | 20 µM (inactive) | 18.4 µM (inactive)
6 | CC1=C2C(O)C(C(C)C(=O)N(C)C)CCC2(C)C=CC1=O (stereo unspecified) | > 100 µM (inactive) | > 100 µM (inactive) |  |  | > 100 µM (inactive) | > 100 µM (inactive) |  | > 100 µM (inactive) |  | > 100 µM (inactive) | > 100 µM (inactive) | > 100 µM (inactive) | > 100 µM (inactive) |  | > 100 µM (inactive) | > 100 µM (inactive) | > 100 µM (inactive) |  | > 100 µM (inactive) | 
7 | Clc1ccccc1CN1COc2c(ccc3cccnc23)C1 | 15.7 µM (inactive) | 1.83 µM (inactive) | 2.59 µM (inactive) |  | 3.09 µM (inactive) | 1.8 µM (inactive) |  |  | 10.4 µM (inactive) | 6.95 µM (inactive) | 2.67 µM (inactive) | 3.32 µM (inactive) | 4.14 µM (inactive) | 4.28 µM (inactive) | 4.46 µM (inactive) | 4.66 µM (inactive) | 0.404 µM (active) |  | 8.24 µM (inactive) | 
8 | O=C1CCC(=O)C1=NNc1ccccc1 |  | > 100 µM (inactive) | > 100 µM (inactive) |  | 8.38 µM (inactive) | > 100 µM (inactive) |  |  | > 100 µM (inactive) | > 100 µM (inactive) | > 100 µM (inactive) | > 100 µM (inactive) | > 100 µM (inactive) | > 100 µM (inactive) | > 100 µM (inactive) | > 100 µM (inactive) |  |  | 43.6 µM (inactive) | 
9 | CCCCCCCCCCCCCCCC(=O)OCCOCCOCCOCc1ccccc1 |  |  |  |  | 36.1 µM (inactive) |  |  |  | > 100 µM (inactive) |  |  | > 100 µM (inactive) | > 100 µM (inactive) | > 100 µM (inactive) | > 100 µM (inactive) | > 100 µM (inactive) |  |  | > 100 µM (inactive) | 
10 | CC1=N/C(=C\c2ccc(N)cc2)C(=O)N1Nc1nnc(NN2C(=O)/C(=C/c3ccc(N)cc3)N=C2C)c2ccccc12 | > 100 µM (inactive) | 22.1 µM (inactive) | > 100 µM (inactive) |  | 54.5 µM (inactive) |  |  |  |  |  |  |  | 38.1 µM (inactive) | 32.5 µM (inactive) | > 100 µM (inactive) | > 100 µM (inactive) | 21.3 µM (inactive) |  | > 100 µM (inactive) | 36.3 µM (inactive)
11 | CCOC(=O)CC(N1CC1)N1CC1 |  | > 10 µM (inactive) | > 10 µM (inactive) | > 10 µM (inactive) | > 10 µM (inactive) | > 10 µM (inactive) | > 10 µM (inactive) | > 10 µM (inactive) | > 10 µM (inactive) | > 10 µM (inactive) |  | > 10 µM (inactive) |  | > 10 µM (inactive) | > 10 µM (inactive) |  | > 10 µM (inactive) | > 10 µM (inactive) | > 10 µM (inactive) | 
12 | O=C1O/C(=C\c2ccc(O)c(Br)c2)C(c2ccc(O)c(Cl)c2)=C1Br |  | 20 µM (inactive) | 17.8 µM (inactive) | 18.8 µM (inactive) | 13.9 µM (inactive) | 25.7 µM (inactive) | 37.3 µM (inactive) | 16.7 µM (inactive) | 25.2 µM (inactive) | 3.65 µM (inactive) |  | 17.8 µM (inactive) |  | 16.3 µM (inactive) | 21.2 µM (inactive) |  | 14.4 µM (inactive) | 16 µM (inactive) | 19.5 µM (inactive) | 
13 | N=C(N)SCc1cn2ccccc2n1 |  | > 100 µM (inactive) | > 100 µM (inactive) |  |  | > 100 µM (inactive) |  |  | > 100 µM (inactive) | > 100 µM (inactive) | > 100 µM (inactive) | > 100 µM (inactive) | > 100 µM (inactive) | > 100 µM (inactive) | > 100 µM (inactive) | 77.8 µM (inactive) | > 100 µM (inactive) |  |  | 
14 | O=C(Nc1ccccc1C(=O)NCCCO)/C(=C/c1ccccc1O)NC(=O)c1ccccc1 |  | > 100 µM (inactive) | 55.6 µM (inactive) | > 81.8 µM (inactive) | 19.5 µM (inactive) | 20.7 µM (inactive) | 26.7 µM (inactive) | 5.36 µM (inactive) | 97.9 µM (inactive) | > 100 µM (inactive) |  | 48.8 µM (inactive) |  | 34 µM (inactive) | 65.6 µM (inactive) |  | 25.2 µM (inactive) | > 50.5 µM (inactive) | > 91.2 µM (inactive) | 
15 | O=C1c2cccc3c(Cl)ccc(c23)C(=O)N1CCCN1CCN(CCCN2C(=O)c3cccc4c(Cl)ccc(c34)C2=O)CC1 | 46.2 µM (inactive) | > 100 µM (inactive) | > 100 µM (inactive) |  | > 100 µM (inactive) | > 100 µM (inactive) |  |  | > 100 µM (inactive) | 53.3 µM (inactive) | > 100 µM (inactive) | > 100 µM (inactive) |  | 64.4 µM (inactive) | > 100 µM (inactive) | 50.5 µM (inactive) |  |  | > 100 µM (inactive) | > 100 µM (inactive)
16 | Fc1nc(Sc2ncnc3nc[nH]c23)nc(-c2c3ccccc3c3sc4ccccc4n23)n1 |  | > 100 µM (inactive) | 43.3 µM (inactive) | > 100 µM (inactive) | > 100 µM (inactive) | > 100 µM (inactive) | > 100 µM (inactive) | > 100 µM (inactive) | > 100 µM (inactive) | > 100 µM (inactive) |  | > 100 µM (inactive) |  | > 100 µM (inactive) | > 100 µM (inactive) |  | > 100 µM (inactive) | > 100 µM (inactive) | > 100 µM (inactive) | 
17 | Cc1ccc(SCC(=O)C2=C(O)CCCC2=O)cc1 | > 100 µM (inactive) | > 100 µM (inactive) | > 100 µM (inactive) |  | > 100 µM (inactive) | > 100 µM (inactive) |  |  | > 100 µM (inactive) |  | > 100 µM (inactive) | > 100 µM (inactive) | > 100 µM (inactive) | > 100 µM (inactive) | > 100 µM (inactive) | > 100 µM (inactive) | > 100 µM (inactive) |  |  | > 100 µM (inactive)
18 | CC1=C[C@@H](C)C[C@]2(C)CC[C@H](O2)[C@]23CC[C@](CO)(C[C@H](O2)[C@@H]2O[C@@](C)(CC2=O)[C@@H](O)[C@H]2CC[C@@]4(CCC[C@@H](O4)[C@H](C)C(=O)O[C@H]4C[C@H]([C@]5(O)OCC[C@H](C)[C@@H]5O)O[C@H]4C=C1)O2)O3 |  | 0.0809 µM (active) | 0.0258 µM (active) | 0.247 µM (active) | 0.00325 µM (active) | 0.0435 µM (active) | 0.0225 µM (active) | > 10 µM (inactive) | 0.0179 µM (active) | 0.0906 µM (active) |  | 0.0171 µM (active) |  | 0.00843 µM (active) | 0.013 µM (active) |  | 0.116 µM (active) | 0.0249 µM (active) | 0.00229 µM (active) | 
19 | C=C1C(=O)O[C@@H]2[C@H]1CCC(C)=C1C=CC(=O)[C@]12C |  | 3.3 µM (inactive) |  |  | 10.3 µM (inactive) | 14.9 µM (inactive) |  |  | 23 µM (inactive) | 13.2 µM (inactive) | 14.3 µM (inactive) | 16.7 µM (inactive) |  | > 10 µM (inactive) | 17 µM (inactive) | 14.9 µM (inactive) | 2.42 µM (inactive) |  |  | 13.8 µM (inactive)
20 | O=C1c2cccc(O)c2C(=O)c2c(O)cc(CO)cc21 [ALOE-EMODIN] | 39.4 µM (inactive) | 24.8 µM (inactive) | 38.4 µM (inactive) |  |  |  |  |  | > 100 µM (inactive) | 83.9 µM (inactive) | 28.2 µM (inactive) |  |  |  |  | 32.5 µM (inactive) | 22.8 µM (inactive) |  | 74.3 µM (inactive) | 56 µM (inactive)
